Tests used:
Assay in all cases: GR value, 72 h; higher = faster growth (1 = untreated, <0 = killing);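 further: breast cancer and non-malignant breast epithelial lines, nine half-log doses, viable cells counted by Hoechst and LIVE/DEAD dye imaging versus time-zero plates and DMSO controls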
AZD1775 = compound: C=CCn1c(=O)c2cnc(Nc3ccc(N4CCN(C)CC4)cc3)nc2n1-c1cccc(C(C)(C)O)n1 [AZD1775]
AZD2014 = compound: CNC(=O)c1cccc(-c2ccc3c(N4CCOC[C@@H]4C)nc(N4CCOC[C@@H]4C)nc3n2)c1 [AZD2014]
R0-3306 = compound: C1=CC2=C(C=CC(=C2)C=C3C(=O)NC(=NCC4=CC=CS4)S3)N=C1 [R0-3306]
Cediranib/AZD2171 = compound: COc1cc2c(Oc3ccc4[nH]c(C)cc4c3F)ncnc2cc1OCCCN1CCCC1 [Cediranib/AZD2171]
THZ-P1-2 = compound: CN(C)C/C=C/C(=O)NC1=CC=C(C=C1)C(=O)NC2=CC=CC(=C2)NC3=NC=NC(=C3)C4=CNC5=CC=CC=C54 [THZ-P1-2]
Rucaparib = compound: CNCc1ccc(-c2[nH]c3cc(F)cc4c3c2CCNC4=O)cc1 [Rucaparib]

AU565
GR value (AZD1775; 0.001 µM): 0.879 GR
GR value (AZD1775; 0.003162 µM): 0.913 GR
GR value (AZD1775; 0.01 µM): 0.779 GR
GR value (AZD1775; 0.03162 µM): 0.585 GR
GR value (AZD1775; 0.1 µM): 0.612 GR
GR value (AZD1775; 0.3162 µM): 0.521 GR
GR value (AZD1775; 1 µM): 0.288 GR
GR value (AZD1775; 3.162 µM): 0.207 GR
GR value (AZD1775; 10 µM): -0.514 GR
GR value (AZD2014; 0.001 µM): 0.592 GR
GR value (AZD2014; 0.003162 µM): 0.509 GR
GR value (AZD2014; 0.01 µM): 0.415 GR
GR value (AZD2014; 0.03162 µM): 0.249 GR
GR value (AZD2014; 0.1 µM): 0.219 GR
GR value (AZD2014; 0.3162 µM): 0.149 GR
GR value (AZD2014; 1 µM): 0.106 GR
GR value (AZD2014; 3.162 µM): -0.0159 GR
GR value (AZD2014; 10 µM): -0.0097 GR
GR value (R0-3306; 0.001 µM): 0.805 GR
GR value (R0-3306; 0.003162 µM): 0.756 GR
GR value (R0-3306; 0.01 µM): 0.522 GR
GR value (R0-3306; 0.03162 µM): 0.735 GR
GR value (R0-3306; 0.1 µM): 0.692 GR
GR value (R0-3306; 0.3162 µM): 0.711 GR
GR value (R0-3306; 1 µM): 0.548 GR
GR value (R0-3306; 3.162 µM): 0.375 GR
GR value (R0-3306; 10 µM): -0.214 GR
GR value (Cediranib/AZD2171; 0.001 µM): 1.04 GR
GR value (Cediranib/AZD2171; 0.003162 µM): 0.989 GR
GR value (Cediranib/AZD2171; 0.01 µM): 1.07 GR
GR value (Cediranib/AZD2171; 0.03162 µM): 1.07 GR
GR value (Cediranib/AZD2171; 0.1 µM): 1.06 GR
GR value (Cediranib/AZD2171; 0.3162 µM): 1.22 GR
GR value (Cediranib/AZD2171; 1 µM): 1.2 GR
GR value (Cediranib/AZD2171; 3.162 µM): 1.08 GR
GR value (Cediranib/AZD2171; 10 µM): 0.941 GR
GR value (THZ-P1-2; 0.01 µM): 0.964 GR
GR value (THZ-P1-2; 0.03162 µM): 1.02 GR
GR value (THZ-P1-2; 0.1 µM): 0.979 GR
GR value (THZ-P1-2; 0.3162 µM): 0.842 GR
GR value (THZ-P1-2; 1 µM): 0.865 GR
GR value (THZ-P1-2; 3.162 µM): 0.881 GR
GR value (THZ-P1-2; 10 µM): -0.648 GR
GR value (Rucaparib; 0.001 µM): 0.952 GR
GR value (Rucaparib; 0.003162 µM): 1.09 GR
GR value (Rucaparib; 0.01 µM): 0.804 GR
GR value (Rucaparib; 0.03162 µM): 0.916 GR
GR value (Rucaparib; 0.1 µM): 0.925 GR
GR value (Rucaparib; 0.3162 µM): 0.845 GR
GR value (Rucaparib; 1 µM): 1.01 GR
GR value (Rucaparib; 3.162 µM): 0.932 GR
GR value (Rucaparib; 10 µM): 0.714 GR

Reference: the supplement of paper PMC9663587
